This note sets out measurements from publication PMC10415494, “Ga(III) pyridinecarboxylate complexes: potential analogues of the second generation of therapeutic Ga(III) complexes?” (Journal of Biological Inorganic Chemistry, 2023).

A word on the IC50: it is the concentration needed to halve the response being measured.

Data set [1] deals with A2058 (human metastatic melanoma). The data set can be described thus: MTS antiproliferative assay. The following applies: Homo sapiens, A2058, 72 h, read-out: Cytotoxic activity IC50 A2058. A general note: Formazan colour is commonly taken as a measure of viable cells.
The subject of data set [2] is HCT116 (human colorectal carcinoma). The data set can be described thus: MTS antiproliferative assay. The following applies: Homo sapiens, HCT-116, 72 h, read-out: Cytotoxic activity IC50 HCT116.
In data set [3] the test system is HeLa (human cervical adenocarcinoma). The data set can be described thus: MTS antiproliferative assay. As to conditions: Homo sapiens, HeLa, 72 h, read-out: Cytotoxic activity IC50 HeLa.
Data set [4] has as its system Jurkat (human leukaemic T cell lymphoma). The data set can be described thus: MTS antiproliferative assay. As to conditions: Homo sapiens, Jurkat, 72 h, read-out: Cytotoxic activity IC50 Jurkat.
Data set [5] deals with MDA-MB-231 (human mammary gland adenocarcinoma). Description: MTS antiproliferative assay. As to conditions: Homo sapiens, MDA-MB-231, 72 h, read-out: Cytotoxic activity IC50 MDA-MB-231.
Data set [6] concerns PaTu 8902 (human pancreatic adenocarcinoma). The data set can be described thus: MTS antiproliferative assay. The following applies: Homo sapiens, PaTu 8902, 72 h, read-out: Cytotoxic activity IC50 PaTu 8902.
Data set [7] can be described thus: MTS antiproliferative assay (non-cancer cells). As to conditions: human.
A short description of data set [8]: Potentiometric determination of ligand protonation (dissociation) constants. The format is physicochemical. As to conditions: 25 °C, I(KNO3) = 0.1 M. On the procedure:
The stock solution of HPic and H2Dpic was prepared by dissolving in demineralized water (c(ligand) = 0.02 M). The gallium(III) ion solution was prepared from anhydrous gallium(III) nitrate (c(Ga^3+) = 0.05 M) and was standardized by back titration of excess of EDTA with zinc(II). Decarbonated potassium hydroxide solution (approx. 0.2 M) was used as a titrant that was standardized by potassium hydrogen phthalate (c(KHP) = 0.1 M). Standard inert electrolyte of nitric acid was used in all titrations (c(HNO3) = 0.03 M, I(HNO3/KNO3) = 0.1 M). Potentiometric measurements were carried out using a TitroLine 7000 dosage system with a BlueLine combination electrode (SI Analytics) in a glass vessel (5 mL) thermostated at 25 ± 0.1 °C at an ionic strength I(KNO3) = 0.1 M. Inert atmosphere was ensured by a constant flow of a nitrogen gas. Precise calibration of the electrode was carried out by the titration of 0.03 M HNO3 with 0.2 M KOH in the range –log[H^+] = 1.8–12.0, with the pH-meter yielding E values. The relation between E and –log[H^+] is expressed by Eq. (1) where the term E^0 contains the standard potentials of the electrode and the contribution of inert ions to the liquid-junction potential. The value S corresponds to the Nernstian slope, the value of which should be close to the theoretical value, and j1[H^+] and j2[OH^–] = j2Kw/[H^+] are contributions of the H^+ and OH^– ions, respectively, to the liquid-junction potential. The pKw value was 13.78 in Eq. (1).1 E=E^0-S-logH^++j1H^++j2Kw/H^+
The parameters j1 and j2 cause deviation from linear dependence between E and –log[H^+] only in strongly acidic and strongly alkaline solutions. The picolinic and dipicolinic acid protonation constants were determined with ligand concentration 0.004 M. The stability constants in the Ga-HPic and Ga-H2Dpic binary system were determined by the ligand concentrations 0.004 and the Ga^3+ concentration was 0.004, 0.002 and 0.001 M in dependence on the ligand to metal ratio.
The protonation constants β110, β210 are the concentration constants and are defined by β110 = [HL]/ [H][L], β210 = [H2L]/ [H]^2[L] (pK2 = logβ110, pK1 = logβ210- logβ110); the stability constants are defined by βrqp = [HrLqMp]/[H]^r[L]^q[M]^p. The equilibrium constants were obtained by fitting the titration data with OPIUM [23]. The following hydrolysis constants were used for the calculations: βpr = [Mp(OH)r^3−r][H]^r/[M]^p; log β11 = − 2.74; log β12 = − 7.0; log β13 = − 11.96; log β14 = − 15.52 [24].

SMILES strings stand for the structures.

Consider `O=C(O)c1cccc(C(=O)O)n1` [H2Dpic, dipicolinic acid], for which the IC50 in data set [1], in data set [2], in data set [3], in data set [4], in data set [5] and in data set [6] was above 200 µM each time. Also, the IC50 at 72 h in data set [7] was above 200 µM. In addition, the “dissociation constant pK2” value in data set [8] turned out to be 2.02. Moreover, in data set [8], the “dissociation constant pK3” value turned out to be 4.74.

In the case of `O=C(O)c1ccccn1` [HPic, picolinic acid], the half-inhibitory concentration (IC50) in data set [1], in data set [2], in data set [3], in data set [4], in data set [5] and in data set [6] was above 200 µM throughout. The same compound yielded a half-inhibitory concentration (IC50) at 72 h in data set [7] (human dermal fibroblasts (HDF)) above 200 µM. Also, in data set [8], the “dissociation constant pK1” value is 1.17. Besides, in data set [8], the “dissociation constant pK2” value is reported as 5.25.
